Data from patent publication US20070254312A1, “Protein Kinase Inhibitors and Methods for Identiying Same” (priority 2004, published 2007).
Where two headings read alike, the source gives them in different places. Starred links: 1 amine or outer side, 2 acyl side, 3 side chain; linkers in the order of their positions; H or OH if unused. Non-standard residues stand in square brackets, D forms with d. Residues, ends and D or L forms follow the SMILES beside them. Groups on a side chain read outwards from the residue. *: point of attachment. X2 = N=C(N)NCCC[C@@H](C(=O)*)N(Cc1cccc(O)c1O)Cc1cccc(O)c1O; X1 = N=C(N)NCCC[C@@H](C(=O)[*:2])N(Cc1cccc(O)c1O)[*:1]; Benzoyl(4-NO2) = O=C(c1ccc([N+](=O)[O-])cc1)*; Cysteamide = C(CS[*:3])N[*:1]; Dap = NC[C@H](N)C(=O)O

Columns and labels:
PKCδ [1] = biological target: T1, PKCδ (Homo sapiens, UniProt Q05655); assay: PKC δ screen, IC50 and Ki determination (Example 2); format: biochemical; design: purchased Panvera; settings: for Fold selectivity (IC50), PKC δ: relative to most potently inhibited isoform (=1): δ for F, ζ for G
T1 sequence (Q05655 whole entry, canonical isoform): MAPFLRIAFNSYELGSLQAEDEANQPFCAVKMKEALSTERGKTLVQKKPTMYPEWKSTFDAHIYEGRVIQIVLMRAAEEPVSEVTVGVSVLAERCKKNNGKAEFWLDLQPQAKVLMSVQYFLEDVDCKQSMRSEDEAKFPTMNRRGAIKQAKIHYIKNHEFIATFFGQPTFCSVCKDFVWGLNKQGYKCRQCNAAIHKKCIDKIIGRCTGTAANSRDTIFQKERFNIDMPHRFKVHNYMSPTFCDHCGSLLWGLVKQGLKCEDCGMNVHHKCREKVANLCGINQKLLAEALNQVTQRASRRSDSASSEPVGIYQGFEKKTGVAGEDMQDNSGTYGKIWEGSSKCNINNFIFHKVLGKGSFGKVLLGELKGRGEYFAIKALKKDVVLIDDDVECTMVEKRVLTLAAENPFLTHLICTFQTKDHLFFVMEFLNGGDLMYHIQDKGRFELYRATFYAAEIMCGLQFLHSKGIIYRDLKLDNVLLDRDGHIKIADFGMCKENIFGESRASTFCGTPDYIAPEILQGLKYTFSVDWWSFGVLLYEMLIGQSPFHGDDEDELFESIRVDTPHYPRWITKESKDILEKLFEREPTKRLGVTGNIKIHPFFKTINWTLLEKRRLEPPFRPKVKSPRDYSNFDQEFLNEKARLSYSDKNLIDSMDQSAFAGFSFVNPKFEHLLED
Method: (§1) Protein Kinase C Assays. The peptides […] (for PKC α, β and γ) and […] (for PKC δ, ε, θ, η, τ, and ζ) were used as substrates. […] Total reaction volume in each well was 50 μL. […] Following an additional 5 min incubation at ambient temperature, 75 μL from each reaction well was transferred into each well of a Unifilter (P81 cellulose phosphate paper) assay plate and washed four times with 0.1% phosphoric acid in water. […] Lead compounds from the library were combined into a single 96 well plate and re-assayed as described above in order to identify the best inhibitor. IC50 determinations of resynthesized inhibitor leads for individual PKC isoforms. Assays were performed in triplicate at pH 7.5 and thermostatically maintained at 30° C. using a Boekel constant temperature device. […] The IC50 values for pure compounds as inhibitors were calculated based on the experimental data using GraFit (Erithacus Software Limited). Protein kinase C δ, ε, θ, and η: As described for PKC α, β, and γ except that the assay was performed in the absence of CaCl2. Protein kinase C τ and ζ: As described for PKC α, β, and γ except that the assay was performed in the absence of CaCl2 and DAG. […] Total reaction volume in each well was 50 μL. All the wells were tested in the same plate and each concentration was tested in triplicate. […] Double reciprocal plots were obtained at different concentrations of substrates. Ki values were calculated using Enzyme Kinetics, SigmaPlot (SPSS Inc.).

PKCζ [2] = biological target: T2, PKCζ (Homo sapiens, UniProt Q05513); assay: PKC ζ screen, IC50 and Ki determination (Example 2); format: biochemical; design: purchased Panvera; settings: for Fold selectivity (IC50), PKC ζ: relative to most potently inhibited isoform (=1): δ for F, ζ for G
T2 sequence (Q05513 1-592): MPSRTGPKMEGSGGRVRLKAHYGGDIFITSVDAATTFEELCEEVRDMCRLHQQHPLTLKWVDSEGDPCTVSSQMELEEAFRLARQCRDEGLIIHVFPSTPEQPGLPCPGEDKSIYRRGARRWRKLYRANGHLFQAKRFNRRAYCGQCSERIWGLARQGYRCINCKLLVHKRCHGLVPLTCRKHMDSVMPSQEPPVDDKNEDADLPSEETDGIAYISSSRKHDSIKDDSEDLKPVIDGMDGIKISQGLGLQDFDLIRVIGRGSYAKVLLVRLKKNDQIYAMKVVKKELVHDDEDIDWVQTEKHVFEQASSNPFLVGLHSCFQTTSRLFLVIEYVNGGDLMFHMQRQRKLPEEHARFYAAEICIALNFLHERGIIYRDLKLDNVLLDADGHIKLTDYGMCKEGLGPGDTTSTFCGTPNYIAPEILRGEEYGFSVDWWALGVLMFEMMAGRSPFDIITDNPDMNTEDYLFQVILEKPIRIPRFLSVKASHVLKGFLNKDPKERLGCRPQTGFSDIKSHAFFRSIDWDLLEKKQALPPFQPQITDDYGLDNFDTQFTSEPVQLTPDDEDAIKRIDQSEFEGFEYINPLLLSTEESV
Method: as §1

PKCε [3] = biological target: T3, PKCε (Homo sapiens, UniProt Q02156); assay: IC50 determination for individual PKC isoforms (Example 2); format: biochemical; design: purchased Panvera; settings: for Fold selectivity (IC50), PKC ε: relative to most potently inhibited isoform (=1): δ for F, ζ for G
T3 sequence (Q02156 1-737): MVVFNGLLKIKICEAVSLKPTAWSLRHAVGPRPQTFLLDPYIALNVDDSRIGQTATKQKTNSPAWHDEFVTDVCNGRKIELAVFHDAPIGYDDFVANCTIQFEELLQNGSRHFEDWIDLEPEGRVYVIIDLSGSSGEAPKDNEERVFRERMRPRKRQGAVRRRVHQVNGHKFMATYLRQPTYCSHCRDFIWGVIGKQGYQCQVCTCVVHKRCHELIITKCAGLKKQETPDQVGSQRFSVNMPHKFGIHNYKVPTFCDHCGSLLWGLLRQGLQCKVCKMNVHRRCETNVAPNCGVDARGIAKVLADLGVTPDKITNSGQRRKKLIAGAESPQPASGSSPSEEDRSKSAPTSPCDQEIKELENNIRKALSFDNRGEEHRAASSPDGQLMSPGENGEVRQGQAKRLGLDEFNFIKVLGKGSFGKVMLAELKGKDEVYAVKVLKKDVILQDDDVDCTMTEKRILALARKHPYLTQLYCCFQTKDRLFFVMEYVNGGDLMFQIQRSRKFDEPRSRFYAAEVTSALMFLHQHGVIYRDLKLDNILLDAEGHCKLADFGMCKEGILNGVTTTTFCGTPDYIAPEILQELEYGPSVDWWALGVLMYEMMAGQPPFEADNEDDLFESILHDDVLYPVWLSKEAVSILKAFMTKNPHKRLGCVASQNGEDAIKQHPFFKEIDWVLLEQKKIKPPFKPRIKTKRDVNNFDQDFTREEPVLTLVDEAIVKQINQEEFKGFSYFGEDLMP
Method: (§2) Protein Kinase C Assays. The peptides […] (for PKC α, β and γ) and […] (for PKC δ, ε, θ, η, τ, and ζ) were used as substrates. IC50 determinations of resynthesized inhibitor leads for individual PKC isoforms. Assays were performed in triplicate at pH 7.5 and thermostatically maintained at 30° C. using a Boekel constant temperature device. […] The IC50 values for pure compounds as inhibitors were calculated based on the experimental data using GraFit (Erithacus Software Limited). Protein kinase C δ, ε, θ, and η: As described for PKC α, β, and γ except that the assay was performed in the absence of CaCl2. Protein kinase C τ and ζ: As described for PKC α, β, and γ except that the assay was performed in the absence of CaCl2 and DAG.

PKCθ = PKCθ (Homo sapiens, UniProt Q04759); assay: as above; format: biochemical; design: purchased Panvera; settings: for Fold selectivity (IC50), PKC θ: relative to most potently inhibited isoform (=1): δ for F, ζ for G
PKCθ, sequence (Q04759 whole entry, canonical isoform): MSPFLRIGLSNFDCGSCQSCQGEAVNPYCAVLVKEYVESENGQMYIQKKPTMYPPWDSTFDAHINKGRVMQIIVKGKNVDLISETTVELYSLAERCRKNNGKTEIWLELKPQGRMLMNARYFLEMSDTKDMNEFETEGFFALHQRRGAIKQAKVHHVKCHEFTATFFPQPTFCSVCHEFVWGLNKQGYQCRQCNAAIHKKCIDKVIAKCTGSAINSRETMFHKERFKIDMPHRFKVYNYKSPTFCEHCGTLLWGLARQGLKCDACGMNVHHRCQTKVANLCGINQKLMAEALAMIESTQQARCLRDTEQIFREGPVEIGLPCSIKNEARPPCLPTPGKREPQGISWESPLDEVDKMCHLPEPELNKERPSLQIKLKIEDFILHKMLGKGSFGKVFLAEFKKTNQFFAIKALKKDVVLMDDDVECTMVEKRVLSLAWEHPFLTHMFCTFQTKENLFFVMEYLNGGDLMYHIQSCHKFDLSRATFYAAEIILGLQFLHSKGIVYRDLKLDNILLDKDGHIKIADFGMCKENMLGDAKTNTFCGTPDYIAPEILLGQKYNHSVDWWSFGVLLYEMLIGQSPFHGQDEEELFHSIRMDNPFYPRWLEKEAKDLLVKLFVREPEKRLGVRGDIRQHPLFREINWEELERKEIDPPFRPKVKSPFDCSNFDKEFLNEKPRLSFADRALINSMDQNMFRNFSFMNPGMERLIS
Method: as §2

PKCη = PKCη (Homo sapiens, UniProt P24723); assay: as above; format: biochemical; design: purchased Panvera; settings: for Fold selectivity (IC50), PKC η: relative to most potently inhibited isoform (=1): δ for F, ζ for G
PKCη, sequence (P24723 whole entry, canonical isoform): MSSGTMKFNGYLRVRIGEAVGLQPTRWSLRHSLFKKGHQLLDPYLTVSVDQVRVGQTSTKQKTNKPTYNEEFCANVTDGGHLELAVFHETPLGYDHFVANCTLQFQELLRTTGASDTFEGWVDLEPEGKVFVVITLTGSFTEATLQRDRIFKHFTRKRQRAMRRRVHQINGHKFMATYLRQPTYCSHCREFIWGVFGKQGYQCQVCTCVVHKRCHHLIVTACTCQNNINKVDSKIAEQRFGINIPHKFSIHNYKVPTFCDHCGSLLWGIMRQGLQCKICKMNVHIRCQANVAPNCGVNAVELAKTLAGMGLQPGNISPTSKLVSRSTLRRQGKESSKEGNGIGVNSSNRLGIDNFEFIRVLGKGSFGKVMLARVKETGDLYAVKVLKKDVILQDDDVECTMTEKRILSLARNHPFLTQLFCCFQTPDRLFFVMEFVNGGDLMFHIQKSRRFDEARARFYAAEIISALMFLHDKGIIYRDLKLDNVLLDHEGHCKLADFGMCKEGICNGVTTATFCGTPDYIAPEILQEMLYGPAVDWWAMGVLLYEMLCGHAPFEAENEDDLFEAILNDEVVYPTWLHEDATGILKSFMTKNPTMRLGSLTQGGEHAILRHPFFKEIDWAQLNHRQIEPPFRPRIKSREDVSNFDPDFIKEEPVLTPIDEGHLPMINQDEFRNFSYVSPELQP
Method: as §2

PKCγ = PKCγ (Homo sapiens, UniProt P05129); assay: as above; format: biochemical; design: purchased Panvera; settings: for Fold selectivity (IC50), PKC γ: relative to most potently inhibited isoform (=1): δ for F, ζ for G
Method: as §2

PKC βI = biological target: T4, PKC βI (Homo sapiens, UniProt P05771); assay: as above; format: biochemical; settings: for Fold selectivity (IC50), PKC β1: relative to most potently inhibited isoform (=1): δ for F, ζ for G
T4 construct: purchased Panvera
T4 sequence (P05771 whole entry, canonical isoform): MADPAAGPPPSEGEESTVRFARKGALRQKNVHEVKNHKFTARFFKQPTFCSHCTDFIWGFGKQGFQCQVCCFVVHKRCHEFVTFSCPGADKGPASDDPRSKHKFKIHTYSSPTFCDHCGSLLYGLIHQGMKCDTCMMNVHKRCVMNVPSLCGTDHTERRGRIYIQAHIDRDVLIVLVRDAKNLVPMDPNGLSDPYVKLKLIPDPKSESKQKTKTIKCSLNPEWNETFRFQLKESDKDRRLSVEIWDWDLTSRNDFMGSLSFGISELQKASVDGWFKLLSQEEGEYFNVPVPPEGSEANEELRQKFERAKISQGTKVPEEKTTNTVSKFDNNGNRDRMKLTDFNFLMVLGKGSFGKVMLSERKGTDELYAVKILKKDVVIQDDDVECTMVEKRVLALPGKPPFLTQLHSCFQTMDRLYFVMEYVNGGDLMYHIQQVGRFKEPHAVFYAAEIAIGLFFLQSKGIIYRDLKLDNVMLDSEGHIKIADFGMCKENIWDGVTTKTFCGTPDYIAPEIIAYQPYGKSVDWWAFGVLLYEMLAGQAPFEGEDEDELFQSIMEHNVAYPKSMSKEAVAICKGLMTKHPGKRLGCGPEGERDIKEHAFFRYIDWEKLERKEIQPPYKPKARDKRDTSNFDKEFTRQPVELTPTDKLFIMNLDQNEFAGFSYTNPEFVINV
Method: as §2

PKC ι = biological target: T5, PKC ι (Homo sapiens, UniProt P41743); assay: as above; format: biochemical; settings: for Fold selectivity (IC50), PKC ι: relative to most potently inhibited isoform (=1): δ for F, ζ for G, text prints τ
T5 construct: purchased Panvera
T5 sequence (P41743 1-596): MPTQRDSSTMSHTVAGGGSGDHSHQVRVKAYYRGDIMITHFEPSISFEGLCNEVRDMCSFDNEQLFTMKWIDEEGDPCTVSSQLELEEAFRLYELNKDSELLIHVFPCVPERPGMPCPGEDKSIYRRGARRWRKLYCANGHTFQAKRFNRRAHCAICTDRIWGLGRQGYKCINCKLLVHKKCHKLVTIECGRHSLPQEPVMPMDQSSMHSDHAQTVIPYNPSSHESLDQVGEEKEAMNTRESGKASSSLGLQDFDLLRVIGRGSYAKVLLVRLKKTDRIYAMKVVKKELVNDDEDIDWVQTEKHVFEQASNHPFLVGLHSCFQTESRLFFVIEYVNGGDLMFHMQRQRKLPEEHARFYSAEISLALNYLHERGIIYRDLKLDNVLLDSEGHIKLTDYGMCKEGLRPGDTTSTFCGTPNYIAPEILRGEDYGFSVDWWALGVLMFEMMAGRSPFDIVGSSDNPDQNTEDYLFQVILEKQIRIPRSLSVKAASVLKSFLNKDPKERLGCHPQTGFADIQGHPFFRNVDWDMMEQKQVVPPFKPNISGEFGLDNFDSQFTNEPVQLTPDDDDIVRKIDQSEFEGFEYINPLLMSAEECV
Method: as §2

PKCα [4] = biological target: T6, PKCα (Homo sapiens, UniProt P17252); assay: as above; format: biochemical; settings: for Fold selectivity (IC50), PKC α: relative to most potently inhibited isoform (=1): δ for F, ζ for G
Method: as §2

PKC β1 = PKC β1 (Homo sapiens, UniProt P05771); settings: literature values; relative to most potently inhibited isoform (=1); cited from earlier work
PKC β1, sequence (P05771 whole entry, canonical isoform): as the sequence (P05771 whole entry, canonical isoform) above

PKCδ [5] = biological target: T1, PKCδ; design: purchased Panvera; settings: literature values; relative to most potently inhibited isoform (=1); cited from earlier work
PKCα [6] = biological target: T6, PKCα; settings: cited from earlier work
PKCζ [7] = biological target: T2, PKCζ; design: purchased Panvera; settings: literature values; relative to most potently inhibited isoform (=1); cited from earlier work
PKCε [8] = biological target: T3, PKCε; design: purchased Panvera; settings: literature values; relative to most potently inhibited isoform (=1); cited from earlier work

SMILES	IC50 (PKCδ [1]) [nM]	Fold selectivity (IC50), PKC ζ (PKCζ [2]) [fold]	Fold selectivity (IC50), PKC ε (PKCε [3]) [fold]	Fold selectivity (IC50), PKC θ (PKCθ) [fold]	Fold selectivity (IC50), PKC η (PKCη) [fold]	Fold selectivity (IC50), PKC γ (PKCγ) [fold]	Fold selectivity (IC50), PKC δ (PKCδ [1]) [fold]	Fold selectivity (IC50), PKC β1 (PKC βI) [fold]	Fold selectivity (IC50), PKC ι (PKC ι) [fold]	Fold selectivity (IC50), PKC α (PKCα [4]) [fold]	also measured
CSCC[C@H](NC(=O)[C@H](Cc1ccccc1)NC(=O)[C@H](CNC(C)=O)NC(=O)CNC(=O)[C@H](CCC(N)=O)NC(=O)[C@H](CCCNC(=N)N)NC(=O)[C@H](CCCNC(=N)N)NC(C)=O)C(=O)N[C@@H](Cc1ccc(O)cc1)C(=O)N[C@@H](Cc1ccccc1)C(=O)NCCS [Compound A] (Ac-RRQG[Dap](Ac)FMYF-Cysteamide)	50000	–	–	–	–	–	–	–	–	–	–
CSCC[C@H](NC(=O)[C@H](Cc1ccccc1)NC(=O)[C@H](CNC(=O)CNC(=O)c1ccc([N+](=O)[O-])cc1)NC(=O)CNC(=O)[C@H](CCC(N)=O)NC(=O)[C@H](CCCNC(=N)N)NC(=O)[C@@H](N)CCCNC(=N)N)C(=O)N[C@@H](Cc1ccc(O)cc1)C(=O)N[C@@H](Cc1ccccc1)C(=O)NCCS [Compound E] (H-RRQG[Dap]([Gly-Benzoyl(4-NO2)])FMYF-Cysteamide)	25 ± 2	–	–	–	–	–	–	–	–	–	IC50 (PKCζ [2]): 22 ± 3 nM; Selectivity (Compound E), PKC ζ (PKCζ [2]; IC50 relative to βI (=1)): 2.8; Selectivity (Compound E), PKC ε (PKCε [3]; IC50 relative to βI (=1)): 287; Selectivity (Compound E), PKC θ (PKCθ; IC50 relative to βI (=1)): 1775; Selectivity (Compound E), PKC η (PKCη; IC50 relative to βI (=1)): 1650; Selectivity (Compound E), PKC γ (PKCγ; IC50 relative to βI (=1)): 550; Selectivity (Compound E), PKC δ (PKCδ [1]; IC50 relative to βI (=1)): 3.1; IC50 (PKC βI): 8 ± 0.5 nM; Selectivity (Compound E), PKC βI (PKC βI; IC50 relative to βI (=1)): 1; Selectivity (Compound E), PKC ι (PKC ι; IC50 relative to βI (=1)): 94; IC50 (PKCα [4]): 3100 ± 200 nM; Selectivity (Compound E), PKC α (PKCα [4]; IC50 relative to βI (=1)): 387
CSCC[C@H](NC(=O)[C@H](Cc1ccccc1)NC(=O)[C@H](CNC(=O)CNC(=O)c1ccc([N+](=O)[O-])cc1)NC(=O)CNC(=O)[C@H](CCC(N)=O)NC(=O)[C@H](CCCNC(=N)N)NC(=O)[C@H](CCCNC(=N)N)NCc1cccc(O)c1O)C(=O)N[C@@H](Cc1ccc(O)cc1)C(=O)N[C@@H](Cc1ccccc1)C(=O)NCCS [Compound F] (H-[X1]RQG[Dap]([Gly-Benzoyl(4-NO2)])FMYF-Cysteamide)	18 ± 2	200	489	761	683	500	1	172	26	944	Ki (PKCδ [1]; versus peptide substrate): 8 ± 1 nM
CSCC[C@H](NC(=O)[C@H](Cc1ccccc1)NC(=O)[C@H](CNC(=O)CNC(=O)c1ccc([N+](=O)[O-])cc1)NC(=O)CNC(=O)[C@H](CCC(N)=O)NC(=O)[C@H](CCCNC(=N)N)NC(=O)[C@H](CCCNC(=N)N)N(Cc1cccc(O)c1O)Cc1cccc(O)c1O)C(=O)N[C@@H](Cc1ccc(O)cc1)C(=O)N[C@@H](Cc1ccccc1)C(=O)NCCS [Compound G] (X2-RQG[Dap]([Gly-Benzoyl(4-NO2)])FMYF-Cysteamide)	5200 ± 100	1	4600	2227	2040	5093	693	730	1493	6333	–
CN(C)CCCn1cc(C2=C(c3c[nH]c4ccccc34)C(=O)NC2=O)c2ccccc21 [Gö6850]	–	–	–	–	–	–	–	–	–	–	Fold selectivity (IC50), PKC β1 (PKC β1): 2 fold; Fold selectivity (IC50), PKC δ (PKCδ [5]): 25 fold; IC50 (PKCα [6]; literature value, read-out: IC50 of the most potently inhibited isoform, PKC α (in parentheses)): 8.4 nM; Fold selectivity (IC50), PKC α (PKCα [6]; literature values, relative to most potently inhibited isoform (=1)): 1 fold; Fold selectivity (IC50), PKC ζ (PKCζ [7]): 690 fold; Fold selectivity (IC50), PKC ε (PKCε [8]): 16 fold
